Reference: patent publication US11298362B2, “Combination therapy with Notch and CDK4/6 inhibitors for the treatment of cancer” (Eli Lilly and Company, priority 2016, dated 2022)

Columns and labels:
[1] = system: pRB (phospho-ser780-Rb), total RB, Topo IIa and pHH3 in H2122 cells; test: Cell cycle biomarker expression by immunoblotting in H2122 cells; assay type: cell-based, human
Description: Time Course Study: NCI-H441 and NCI-H2122 NSCLC cell lines are treated for 4 or 24 hours with 1 μM of Compound A and harvested to evaluate effects on cell cycle biomarker expression which includes the cell cycle inhibitors p21 and p27 as well as markers for cell cycle progression including phospho-histone H3 (pHH3) (a marker for M-phase), Topo 2A (a marker for S-phase), phospho_ser780-RB (a marker for G1 and, as well as, for CDK4/6 inhibition) and cyclin Dl. […] […] Cells are harvested after 24 hours of treatment and evaluated for expression of various cell cycle biomarkers by immunoblotting. […] RB is the direct kinase target of CDK4/6 so inhibition of pRB provides a direct measure of CDK4/6 inhibition. The inhibition of Topo IIA and pHH3 are indicative of the inhibition of cell cycle progression through S and M phases of the cell cycle, respectively. […] The same study is carried out in the H441 cell line. […] RB is the direct kinase target of CDK4/6 so inhibition of pRB provides a direct measure of CDK4/6 inhibition. The inhibition of Topo IIA and pHH3 are indicative of the inhibition of cell cycle progression through S and M phases of the cell cycle, respectively.

NCI-H2122 xenograft = test: Human NCI-H2122 xenograft tumor growth in athymic nude mice; assay type: in vivo
Description: (§1) NCI-H2122 is a human adenocarcinoma non-small cell lung cancer cell line (ATCC® as CRL-5985). The cells are grown in culture media at 37° C. in 5% CO2 with humidity in the atmosphere. Cell culture media for NCI-H2122 is RPMI-1640 with 2 mM L-glutamine, 10 mM 2-[4-(2-hydroxyethyl)piperazin-1-yl]ethanesulfonic acid (HEPES), 1 mM sodium pyruvate, 4500 mg/L glucose, 1500 mg/L sodium bicarbonate, and 10% fetal bovine serum (FBS).
To evaluate in vivo efficacy 5×10^6 NCI-H2122 cells in a 1:1 Matrigel® mix (0.2 mL volume) are implanted by subcutaneous injection in the hind leg of 6-8 weeks of age athymic nude female mice (Harlan Laboratories). Just before implantation animals are irradiated ([…]). Mice are fed ad libitum on normal chow. Treatment is initiated with oral administration (gavage) of Compound A in 1% sodium carboxymethylcellulose (Na-CMC) in 0.25% Tween®-80, or Compound B in 1% hydroxyethyl cellulose (HEC) in phosphate buffer pH 2.0 or their respective vehicle in 0.2 mL volume when tumor size reaches to 150±50 mm^3. Compound A is administered at 5 or 8 mg/kg on a Wednesday, Friday, and Monday schedule (TIW) for 2 weeks and Compound B is administered at 25 or 50 mg/kg daily for 14 days.
Tumor growth and body weight are monitored over time to evaluate efficacy and signs of toxicity. Bidimensional measurements of tumors are performed twice a week and tumor volumes are calculated based on the following formula: (Tumor Volume)=[(L)×(W2)×(Π/6)] where L is mid-axis length and W is mid-axis width. Tumor volume data are transformed to a log scale to equalize variance across time and treatment groups. The log volume data are analyzed with a two-way repeated measures analysis of variance by time and treatment using the MIXED™ procedures in SAS™ software (version 8.2). The correlation model for the repeated measures is spatial power. Test Groups are: • 1: 1% HEC in 25 mM Phosphate Buffer, pH 2, QD×14, PO/1% CMC/0.25% Tween 80/0.05% Antifoam, /W-F-M×2, PO • 3: Compound B, 50 mg/kg, QD×14, PO • 4: Compound A, 5 mg/kg, W-F-M×2, PO • 5: Compound A, 8 mg/kg, W-F-M×2, PO • 7: Compound B, 50 mg/kg, QD×14, PO/Compound A, 5 mg/kg, W-F-M×2, PO • 8: Compound B, 50 mg/kg, QD×14, PO/Compound A, 8 mg/kg, W-F-M×2, PO Group 7 and a Group 9 were combined and labelled group 7, because they received the same treatment regimen contrary to testing procedures. […] Group 2 is not shown as it was Compound B monotreatment at the same treatment regimen as Compound B in Group 6 combination treatment.
Using the repeated measures analysis previously described, a contrast statement is used to test for an interaction effect on study day 27, using the two specific treatments that were combined (Group 7).

NCI-H441 = test: Cell growth inhibition by CellTiter-Glo assay, NCI-H441; assay type: cell-based; settings: Homo sapiens, Compound B alone, 48 hours
Description: (§2) The non-small cell lung cancer (NSCLC) lines NCI-H441 (ATCC® as HTB-174) and NCI-H2122 (ATCC® as CRL-5985) are grown in RPMI-1640 medium supplemented with 2 mM L-glutamine, 10 mM HEPS, 1 mM sodium pyruvate, 4500 mg/L glucose, 1500 mg/L sodium bicarbonate, and 10% fetal bovine serum (FBS) at 37° C. in 5% CO2 with humidity in the atmosphere. The cells are subcultured according to ATCC procedures and treated with increasing concentrations of abemaciclib mesylate (Compound B) either in the presence or absence of 1 μM of Compound A. The growth of the cells is quantified 48 hours later by a CellTiter-Glo assay (Promega). Growth inhibition at each concentration is calculated and IC50 values are determined from the 4-parameter concentration-response curves.

NCI-H2122 = test: Cell growth inhibition by CellTiter-Glo assay, NCI-H2122; assay type: cell-based; settings: Homo sapiens, Compound B alone, 48 hours
Description: as §2, §1

[2] = Compound B 0.05-0.8 μM with or without 1 μM Compound A added 1 day before Compound B, 24 hours after addition
[3] = Compound B 0.05-0.8 μM with or without 1 μM Compound A added simultaneously, 24 hours

SMILES: C[C@H](NC(=O)CCC(F)(F)F)C(=O)N[C@@H]1C(=O)N(CCO)c2ncccc2-c2ccccc21 [Compound A, 4,4,4-trifluoro-N-[(1S)-2-[[(7S)-5-(2-hydroxyethyl)-6-oxo-7H-pyrido[2,3-d][3]benzazepin-7-yl]amino]-1-methyl-2-oxo-ethyl]butanamide]
- cell cycle biomarker expression, time course study ([1]; 1 μM Compound A, 24 hours of treatment): Marginal reductions of pHH3, Topo2A, pRB and total RB
- cell cycle biomarker expression, concentration-response study [1, 2]: no effect on the expression of these biomarkers
- cell cycle biomarker expression, concentration-response study [1, 3]: no effect on the expression of these biomarkers
- Geometric Mean tumor volume (NCI-H2122 xenograft; Group 04: Compound A 5 mg/kg W-F-M×2 PO, study day 6): 110.18 mm^3
- Geometric Mean tumor volume (NCI-H2122 xenograft; Group 04: Compound A 5 mg/kg W-F-M×2 PO, study day 9): 129.04 mm^3
- Geometric Mean tumor volume (NCI-H2122 xenograft; Group 04: Compound A 5 mg/kg W-F-M×2 PO, study day 13): 189.14 mm^3
- Geometric Mean tumor volume (NCI-H2122 xenograft; Group 04: Compound A 5 mg/kg W-F-M×2 PO, study day 16): 289.03 mm^3
- Geometric Mean tumor volume (NCI-H2122 xenograft; Group 04: Compound A 5 mg/kg W-F-M×2 PO, study day 20): 447.05 mm^3
- Geometric Mean tumor volume (NCI-H2122 xenograft; Group 04: Compound A 5 mg/kg W-F-M×2 PO, study day 23): 585.69 mm^3
- Geometric Mean tumor volume (NCI-H2122 xenograft; Group 04: Compound A 5 mg/kg W-F-M×2 PO, study day 27): 761.24 mm^3
- Geometric Mean tumor volume (NCI-H2122 xenograft; Group 05: Compound A 8 mg/kg W-F-M×2 PO, study day 6): 127.60 mm^3
- Geometric Mean tumor volume (NCI-H2122 xenograft; Group 05: Compound A 8 mg/kg W-F-M×2 PO, study day 9): 165.23 mm^3
- Geometric Mean tumor volume (NCI-H2122 xenograft; Group 05: Compound A 8 mg/kg W-F-M×2 PO, study day 13): 199.00 mm^3
- Geometric Mean tumor volume (NCI-H2122 xenograft; Group 05: Compound A 8 mg/kg W-F-M×2 PO, study day 16): 301.93 mm^3
- Geometric Mean tumor volume (NCI-H2122 xenograft; Group 05: Compound A 8 mg/kg W-F-M×2 PO, study day 20): 492.37 mm^3
- Geometric Mean tumor volume (NCI-H2122 xenograft; Group 05: Compound A 8 mg/kg W-F-M×2 PO, study day 23): 481.31 mm^3
- Geometric Mean tumor volume (NCI-H2122 xenograft; Group 05: Compound A 8 mg/kg W-F-M×2 PO, study day 27): 570.39 mm^3

SMILES: CCN1CCN(Cc2ccc(Nc3ncc(F)c(-c4cc(F)c5nc(C)n(C(C)C)c5c4)n3)nc2)CC1 [Compound B, N-[5-(4-ethyl-piperazin-1-ylmethyl)-pyridin-2-yl]-[5-fluoro-4-(7-fluoro-3-isopropyl-2-methyl-3H-benzoimidazol-5-yl)-pyrimidin-2-yl]-amine, reference compound]
- cell cycle biomarker expression, concentration-response study [1, 2]: concentration-dependent inhibition of pRB (phospho-ser780-Rb), total RB, Topo IIa and pHH3
- cell cycle biomarker expression, concentration-response study [1, 3]: concentration-dependent inhibition of pRB (phospho-ser780-Rb), total RB, Topo IIa and pHH3
- IC50 (NCI-H441): 970 nM
- IC50 (NCI-H2122): 450 nM
- Geometric Mean tumor volume (NCI-H2122 xenograft; Group 03: Compound B 50 mg/kg QD×14 PO, study day 6): 136.94 mm^3
- Geometric Mean tumor volume (NCI-H2122 xenograft; Group 03: Compound B 50 mg/kg QD×14 PO, study day 9): 188.32 mm^3
- Geometric Mean tumor volume (NCI-H2122 xenograft; Group 03: Compound B 50 mg/kg QD×14 PO, study day 13): 191.75 mm^3
- Geometric Mean tumor volume (NCI-H2122 xenograft; Group 03: Compound B 50 mg/kg QD×14 PO, study day 16): 321.32 mm^3
- Geometric Mean tumor volume (NCI-H2122 xenograft; Group 03: Compound B 50 mg/kg QD×14 PO, study day 20): 376.59 mm^3
- Geometric Mean tumor volume (NCI-H2122 xenograft; Group 03: Compound B 50 mg/kg QD×14 PO, study day 23): 489.72 mm^3
- Geometric Mean tumor volume (NCI-H2122 xenograft; Group 03: Compound B 50 mg/kg QD×14 PO, study day 27): 491.92 mm^3
